pIC50: −log10 of the molar value. Like-named read-outs stand apart in the source and are kept apart here.
Legend:
MKN-45 cells = assay: Anti-proliferation activity, CTG, MKN-45 cells; type: cell-based
Experimental: (§1) Experimental objective: To evaluate the anti-proliferation activities of the compounds against MKN-45 cells, EBC-1 cells, Hs746T cells and Vero cells.
(§2) Experimental methods: Tumor cell lines were cultured and periodically passaged, and cells in logarithmic growth phase were taken for plate spreading. The cells were stained with Trypan blue, counted and adjusted to an appropriate density. 50 μL of cell suspension was added into each well of a culture plate, and 50 μL of nutrient solution without cells was added into a blank control well. The culture plate was precultured for 24 h in an incubator under the condition of 37° C., 5% CO2 and 100% relative humidity.
(§3) The DMSO stock solutions of the compounds 1-28 and Capmatinib were prepared, and diluted with Tecan D300e. Each compound was diluted to 7 concentration levels: 0.50 μM, 0.125 μM, 0.031 μM, 0.0078 μM, 0.0020 μM, 0.00049 μM, 0.00012 μM. The experiment was carried out in triplicate.
(§4) 50 μL of the solution was added into each designated well, and the culture plate was incubated for 48 h. 50 μL of CTG working solution was added to each well. The culture plate was wrapped with aluminum foil to avoid light and shaken in the shaker for 2 min to induce cell lysis. The culture plate was placed at room temperature for 10 min to stabilize light-emitting signal which was detected with a 2014 EnVision plate reader. Experimental data was processed by GraphPad Prism 7 to calculate IC50.

c-MET = c-MET (Homo sapiens (Human), UniProt P08581); assay: c-MET kinase inhibitory activity (ELISA, poly(Glu,Tyr) substrate); type: biochemical; conditions: read-out: c-MET kinase inhibitory enzymatic activity IC50
Sequence of c-MET (P08581 25-1390): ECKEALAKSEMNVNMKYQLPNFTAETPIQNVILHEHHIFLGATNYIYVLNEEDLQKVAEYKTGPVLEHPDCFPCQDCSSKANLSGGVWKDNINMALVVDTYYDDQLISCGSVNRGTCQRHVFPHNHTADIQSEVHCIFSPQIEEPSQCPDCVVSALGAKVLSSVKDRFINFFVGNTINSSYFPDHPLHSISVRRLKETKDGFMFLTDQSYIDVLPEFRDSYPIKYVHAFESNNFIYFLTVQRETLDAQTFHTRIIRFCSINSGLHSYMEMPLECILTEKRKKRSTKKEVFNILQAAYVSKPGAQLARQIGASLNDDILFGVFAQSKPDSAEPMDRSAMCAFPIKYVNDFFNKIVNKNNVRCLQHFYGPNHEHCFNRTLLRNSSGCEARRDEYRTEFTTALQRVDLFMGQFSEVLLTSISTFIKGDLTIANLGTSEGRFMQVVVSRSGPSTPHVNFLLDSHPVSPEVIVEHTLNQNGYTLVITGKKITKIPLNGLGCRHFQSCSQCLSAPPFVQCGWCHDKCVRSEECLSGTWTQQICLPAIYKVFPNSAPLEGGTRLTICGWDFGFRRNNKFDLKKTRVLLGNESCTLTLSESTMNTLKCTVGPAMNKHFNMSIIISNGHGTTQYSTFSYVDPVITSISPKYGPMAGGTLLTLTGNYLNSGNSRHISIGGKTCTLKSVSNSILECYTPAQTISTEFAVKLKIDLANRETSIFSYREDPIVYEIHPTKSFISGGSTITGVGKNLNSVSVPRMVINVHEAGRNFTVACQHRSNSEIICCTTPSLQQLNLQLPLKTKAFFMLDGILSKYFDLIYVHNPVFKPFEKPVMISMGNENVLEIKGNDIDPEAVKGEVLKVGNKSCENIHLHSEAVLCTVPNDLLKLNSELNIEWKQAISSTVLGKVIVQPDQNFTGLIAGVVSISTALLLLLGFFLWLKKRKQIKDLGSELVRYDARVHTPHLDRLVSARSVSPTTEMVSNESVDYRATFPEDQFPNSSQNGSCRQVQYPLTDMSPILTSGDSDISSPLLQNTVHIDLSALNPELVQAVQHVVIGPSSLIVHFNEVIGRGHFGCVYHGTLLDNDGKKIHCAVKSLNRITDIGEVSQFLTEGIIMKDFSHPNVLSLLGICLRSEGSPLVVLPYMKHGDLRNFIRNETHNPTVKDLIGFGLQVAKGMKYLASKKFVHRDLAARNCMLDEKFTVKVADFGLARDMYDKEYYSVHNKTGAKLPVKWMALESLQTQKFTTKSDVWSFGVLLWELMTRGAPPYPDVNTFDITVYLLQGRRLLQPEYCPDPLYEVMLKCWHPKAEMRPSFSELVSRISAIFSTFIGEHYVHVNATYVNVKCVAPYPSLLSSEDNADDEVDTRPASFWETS

Vero cells = assay: Anti-proliferation activity, CTG, Vero cells; type: cell-based
Experimental: as §1, §2, §3, §4

SPF Kunming mice = conditions: mouse, in vivo, po
Hs746T cells = assay: Anti-proliferation activity, CTG, Hs746T cells; type: cell-based
Experimental: as §1, §2, §3, §4

EBC-1 cells = assay: Anti-proliferation activity, CTG, EBC-1 cells; type: cell-based, human
Experimental: as §1, §2, §3, §4

[1] = system: human EBC-1 cell subcutaneous xenograft model; assay: In vivo anti-tumor assessment in EBC-1 cell xenograft tumor mouse model; design: species or system mice; conditions: 10 mg/kg P.O. QD × 15 days
Experimental: Experimental objective: To investigate in vivo efficacy of representative compounds on human lung squamous carcinoma cell (human EBC-1 cell) subcutaneous xenograft model.
Experimental methods: The EBC-1 cell xenograft tumor mouse model was used, according to the diameters of tumor, the tumor volume (TV), relative tumor volume (RTV), relative tumor proliferation rate (T/C (%)) and tumor growth inhibition value (TGI (%)) were calculated.
TGI (%) or T/C (%) of the compounds was evaluated. TGI (%) reflects a tumor growth inhibitory rate. TGI (%) was calculated as follows: TGI (%)=[1−(average tumor volume at the end of administration in a treatment group-average tumor volume at the beginning of administration in the treatment group)/(average tumor volume at the end in a solvent control group-average tumor volume at the beginning in the solvent control group)]×100%.
T/C (%) was calculated as follows: T/C (%)=TRTV/CRTV×100%; where TRTV is treatment RTV, and CRTV is negative control RTV. According to the measurement results of the tumor, RTV was calculated, and the calculating formula for RTV is as follows: RTV=Vt/V0; where V0 is the average tumor volume measured on the day of first administration; and Vt is the average tumor volume measured on a specified day. TRTV and CRTV were measured on the same day.

in vivo = conditions: both, Kunming, mouse, po
[2] = Homo sapiens, MKN-45 cells, 48 h, CTG
[3] = Chlorocebus sabaeus, Vero cells, 48 h, CTG
[4] = Homo sapiens, Hs746T cells, 48 h, CTG
[5] = Homo sapiens, EBC-1 cells, 48 h, CTG

## CNC(=S)c1ccc(-c2cnc3ncc(Cc4ccc5ncccc5c4)n3n2)c(F)c1F [Compound 7]
MKN-45 cells; MKN-45 cells, 48 h, CTG
  pIC50: 8.89
c-MET; ATP 4 μM, 37° C. 1 h
  pIC50: 11.66
Vero cells; Vero cells, 48 h, CTG
  pIC50: 6.90
SPF Kunming mice
  LD50: 305 mg/kg
Hs746T cells; Hs746T cells, 48 h, CTG
  pIC50: 8.74
EBC-1 cells; EBC-1 cells, 48 h, CTG
  pIC50: 8.92

## CNC(=S)c1ccc(-c2cnc3ncc(Cc4cc(F)c5ncccc5c4)n3n2)cc1F [Compound 13]
MKN-45 cells; MKN-45 cells, 48 h, CTG
  pIC50: 8.92
c-MET; ATP 4 μM, 37° C. 1 h
  pIC50: 11.77
Vero cells; Vero cells, 48 h, CTG
  pIC50: 6.82
SPF Kunming mice
  LD50: 314 mg/kg
Hs746T cells; Hs746T cells, 48 h, CTG
  pIC50: 8.85
EBC-1 cells; EBC-1 cells, 48 h, CTG
  pIC50: 8.77

## CNC(=S)c1ccc(-c2cnc3ncc(Cc4ccc5ncccc5c4)n3n2)cc1F [Compound 1]
MKN-45 cells; MKN-45 cells, 48 h, CTG
  pIC50: 8.82
c-MET; ATP 4 μM, 37° C. 1 h
  pIC50: 11.66
Vero cells; Vero cells, 48 h, CTG
  pIC50: 6.89
SPF Kunming mice
  LD50: 293 mg/kg
[1]
  T/C(%): 15.09%
  TGI(%): 103.24%
[1]; Day 15
  Tumor Volume (Day 15): 136 ± 17 mm^3
[1]; end of the experiment, FIG. 2
  inhibition of growth of the tumor in mice (tumor volume change): better inhibitory effects
Hs746T cells; Hs746T cells, 48 h, CTG
  pIC50: 8.80
EBC-1 cells; EBC-1 cells, 48 h, CTG
  pIC50: 8.85

## CNC(=S)c1ccc(-c2cnc3ncc(Cc4ccc5ncccc5c4)n3n2)cc1OC [Compound 12]
MKN-45 cells; [2]
  pIC50: 8.96
c-MET; ATP 4 μM, 37° C. 1 h
  pIC50: 11.72
Vero cells; [3]
  pIC50: 6.63
Hs746T cells; [4]
  pIC50: 8.96
In vivo
  LD50: 286 mg/kg
EBC-1 cells; [5]
  pIC50: 8.77

## CNC(=S)c1ccc(-c2cnc3ncc(Cc4ccc5ncccc5c4)n3n2)cc1NC [Compound 10]
MKN-45 cells; [2]
  pIC50: 8.74
c-MET; ATP 4 μM, 37° C. 1 h
  pIC50: 11.80
Vero cells; [3]
  pIC50: 6.79
Hs746T cells; [4]
  pIC50: 8.82
In vivo
  LD50: 292 mg/kg
EBC-1 cells; [5]
  pIC50: 8.72

## CC(C)NC(=S)c1ccc(-c2cnc3ncc(Cc4ccc5ncccc5c4)n3n2)cc1F [Compound 3]
MKN-45 cells; [2]
  pIC50: 8.82
c-MET; ATP 4 μM, 37° C. 1 h
  pIC50: 11.80
Vero cells; [3]
  pIC50: 7.00
Hs746T cells; [4]
  pIC50: 8.82
In vivo
  LD50: 291 mg/kg
EBC-1 cells; [5]
  pIC50: 8.74

## Fc1cc(-c2cnc3ncc(Cc4ccc5ncccc5c4)n3n2)ccc1C(=S)NC1CC1 [Compound 4]
MKN-45 cells; [2]
  pIC50: 8.72
c-MET; ATP 4 μM, 37° C. 1 h
  pIC50: 11.60
Vero cells; [3]
  pIC50: 6.67
Hs746T cells; [4]
  pIC50: 8.85
In vivo
  LD50: 320 mg/kg
EBC-1 cells; [5]
  pIC50: 8.74

## CNC(=S)c1ccc(-c2cnc3ncc(C(c4ccc5ncccc5c4)N(C)C)n3n2)cc1F (stereo not shown) [Compound 25]
MKN-45 cells
  pIC50: 8.89
c-MET
  pIC50: 11.64
Vero cells
  pIC50: 6.72
SPF Kunming mice
  LD50: 287 mg/kg
Hs746T cells
  pIC50: 8.89
EBC-1 cells
  pIC50: 9.00

## CNC(=S)c1ccc(-c2cnc3ncc(C(N)c4ccc5ncccc5c4)n3n2)cc1F (stereo not shown) [Compound 26]
MKN-45 cells; MKN-45 cells, 48 h, CTG
  pIC50: 8.96
c-MET; ATP 4 μM, 37° C. 1 h
  pIC50: 11.77
Vero cells; Vero cells, 48 h, CTG
  pIC50: 6.55
SPF Kunming mice
  LD50: 295 mg/kg
Hs746T cells; Hs746T cells, 48 h, CTG
  pIC50: 8.96
EBC-1 cells; EBC-1 cells, 48 h, CTG
  pIC50: 8.74

## CNC(=S)c1ccc(-c2cnc3ncc(Cc4cc(Cl)c5ncccc5c4)n3n2)cc1F [Compound 15]
MKN-45 cells; MKN-45 cells, 48 h, CTG
  pIC50: 8.80
c-MET; ATP 4 μM, 37° C. 1 h
  pIC50: 11.89
Vero cells; Vero cells, 48 h, CTG
  pIC50: 6.62
SPF Kunming mice
  LD50: 305 mg/kg
Hs746T cells; Hs746T cells, 48 h, CTG
  pIC50: 8.89
EBC-1 cells; EBC-1 cells, 48 h, CTG
  pIC50: 8.82

## CNC(=S)c1ccc(-c2cnc3ncc(Cc4ccc5occc5c4)n3n2)cc1F [Compound 18]
MKN-45 cells; [2]
  pIC50: 8.82
c-MET; ATP 4 μM, 37° C. 1 h
  pIC50: 11.89
Vero cells; [3]
  pIC50: 6.83
Hs746T cells; [4]
  pIC50: 8.82
In vivo
  LD50: 302 mg/kg
EBC-1 cells; [5]
  pIC50: 8.96

## CNC(=S)c1ccc(-c2cnc3ncc(Cc4ccc5ncccc5c4)n3n2)cc1Cl [Compound 8]
MKN-45 cells; MKN-45 cells, 48 h, CTG
  pIC50: 8.77
c-MET; ATP 4 μM, 37° C. 1 h
  pIC50: 11.72
Vero cells; Vero cells, 48 h, CTG
  pIC50: 6.85
SPF Kunming mice
  LD50: 321 mg/kg
Hs746T cells; Hs746T cells, 48 h, CTG
  pIC50: 8.74
EBC-1 cells; EBC-1 cells, 48 h, CTG
  pIC50: 8.74

## CNC(=S)c1ccc(-c2cnc3ncc(Cc4ccc5scnc5c4)n3n2)cc1F [Compound 19]
MKN-45 cells; [2]
  pIC50: 8.72
c-MET; ATP 4 μM, 37° C. 1 h
  pIC50: 11.72
Vero cells; [3]
  pIC50: 6.60
Hs746T cells; [4]
  pIC50: 8.85
In vivo
  LD50: 297 mg/kg
EBC-1 cells; [5]
  pIC50: 8.85

Source: patent US20240294535A1, “IMIDAZOTRIAZINE THIOBENZAMIDE DERIVATIVE, AND PREPARATION METHOD AND APPLICATION THEREOF” (Yunbaiyao Zhengwu Science and Technology (Shanghai) Co., …, priority 2023, published 2024)
